Like-named read-outs stand apart in the source and are kept apart here.
Columns and labels:
[1] = 7-day application of a cream to the skin before exposure to UV radiation; compared to untreated skin; reference [8]; cited from earlier work
tyrosinase [2] = conditions: cited from earlier work; for mechanism of tyrosinase inhibition: references [6], [7]
[3] = system: human reconstructed epidermis Episkin™; assay: Skin irritation test in reconstructed human epidermis (Episkin); conditions: 5% aqueous, 15 min exposure, 42 h incubation
Experimental: The study used human reconstructed epidermis Episkin™ with an area of 1.07 cm^2. Immediately after receipt, the tissue was transferred to fresh medium and cultured in an incubator (37 °C, 5% CO2) for 18 hours. Before performing experiments, the inserts were washed with sterile PBS and placed in the wells of a 12-well plate containing 2 mL of fresh culture medium. […] After 15 min of exposure, samples were washed with PBS (5x5 mL). The inserts were transferred to plates with fresh culture medium and incubated for 42 hours (37 °C, 5% CO2). After this time, the entire medium was collected to assess the amount of released interleukin 1α (the medium was stored at -20 °C until the experiment was performed), and the inserts were transferred to the MTT solution. […] Measurement of the absorbance of the samples obtained in this way at 570 nm enabled the assessment of tissue viability according to the formula: % Viability = [OD (570 nm) for the tested compound/OD (570 nm) for the control] × 100.

tyrosinase [4] = conditions: reference [11], cited from earlier work
S. typhimurium TA98 = assay: Ames microplate test, TA98; format: cell-based, Salmonella typhimurium;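 further: reference level is the mean solvent-control yellow wells plus SD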
Experimental: (§1) Bacteria were grown overnight in growth medium.
(§2) Table 9. Ames microplate test results.

S. typhimurium TA1535 = assay: Ames microplate test, TA1535;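 further: bacteria exposed to compound 90 min at 37 °C, then kept 48 h at 37 °C with indicator medium in 384-well plates, scoring wells that turned yellow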
Experimental: (§3) The study used the Ames microplate test (Ames MPF™ Penta 2 by Xenometrix, Allschwil, Switzerland). Growth medium, exposure medium, indicator medium, positive controls, hepatic microsomal fraction, NADP, glucose-6-phosphate, Salmonella typhimurium and Escherichia coli strains were components of the purchased experimental kit. Bacteria were grown overnight in growth medium. They were then exposed to the test compound at the appropriate concentration in exposure medium without or with the rat microsomal fraction S9 in 24-well plates for 90 min at 37 °C with shaking. Then, indicator medium was added to the wells and pipetted into 384-well plates, which were incubated for 48 hours at 37 °C without shaking. Results were assessed by counting the wells in which the medium turned yellow for each experimental condition.

E. coli WP2 = assay: Ames microplate test, E. coli WP2;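 further: bacteria treated 90 min at 37 °C in 24-well plates, then indicator medium dispensed to 384-well plates and incubated 48 h before yellow-well counting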
Experimental: as §3

[5] = Lipophilicity coefficient RM0 by reversed phase thin layer chromatography; format: physicochemical; conditions: RP-18 TLC, methanol / 100 mM phosphate buffer pH = 7.4
Experimental: Confirmation of the identity and purity of the obtained compounds consisted in the registration and interpretation of ^1H NMR and ^13C NMR spectra (the spectra were recorded using an ECZR 500 MHz (JEOL) series FT-NMR spectrophotometer), as well as the registration and interpretation of LC-MS spectra (the spectra were recorded using Acquita UPLC system (Waters) coupled with a Waters TQD mass spectrometer). The melting point was measured using the open capillary method in the IA9300 device (Electrothermal). The lipophilicity coefficient RM0 was determined by reversed phase thin layer chromatography. In the study, aluminum plates 20x20 cm covered with modified silica gel RP-18 F254 (Merck) were used as the solid phase. The mobile phase consisted of solutions of methanol and 100 mM phosphate buffer (pH = 7.4), characterized by a variable methanol content ranging from 95 to 65% (v/v). The tested compounds were dissolved in methanol to obtain solutions with a concentration of 1 mg/mL. Then, 5 µL of the solutions prepared in this way were transferred to the starting line on aluminum plates, which were then placed in chromatographic chambers previously saturated with mobile phase vapors for at least 1 hour. All activities, including the development of chromatograms, were carried out at room temperature. After developing the chromatograms to approximately 1-2 cm from the end of the plate, the plates were dried and then the distance traveled by the tested compounds was visualized under UV light (λ = 254 nm). The experiment was performed in duplicate for the specified conditions. For all samples, Rf was calculated according to the formula Rf = a/b, where a - the distance traveled by the tested compound, b - the distance traveled by the mobile phase. Then, the RM parameter was calculated for all samples according to the formula RM = log(1/Rf - 1), obtaining a linear relationship between the RM values and the methanol concentration in the mobile phase. The logP coefficient was also calculated using the following computer programs: ACD/ChemSketch 2020.1.2 and ChemDraw 20.0.0.41. Table 2. The physicochemical data of the compounds are presented below

S. typhimurium TA100 = assay: Ames microplate test, TA100; format: cell-based, Salmonella typhimurium;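 further: reference level is the mean solvent-control yellow wells plus SD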
Experimental: as §1, §2

[6] = system: Chinese hamster ovary cell line (CHO-K1); assay: Cytotoxicity in CHO-K1 cells (MTT) before the micronucleus test; format: cell-based; conditions: 24 hours
Experimental: The assay was performed using a Chinese hamster ovary cell line (CHO-K1) purchased from the American Type Culture Collection (ATCC). The cells were cultured in F-12K medium with the addition of 10% fetal bovine serum (FBS) and antibiotics (streptomycin/penicillin) in an incubator at 37 °C and 5% CO2 concentration). Before the actual micronucleus test, a cytotoxicity assessment was performed to ensure that the actual test was performed only at safe concentrations. For this purpose, cells were transferred to 96-well plates and incubated with the tested compounds for 24 hours. After this time, the MTT test was performed and cell viability was assessed in comparison to the control group (cells cultured with DMSO at the same concentration as in the case of the tested samples).

[7] = system: Chinese hamster ovary cell line (CHO-K1); assay: Genotoxicity in the micronucleus test in CHO-K1 cells; format: cell-based
[8] = system: B16-F10 murine melanoma cell line; assay: Cytotoxicity in B16-F10 cells (MTT); format: cell-based; conditions: 48 h
Experimental: In order to determine safe doses of compounds for testing the inhibition of melanogenesis in a murine melanoma cell line, cytotoxicity tests were performed. Cytotoxicity was determined by the colorimetric method using MTT ([3-(4,5-dimethyl-2-thiazolyl)-2,5-diphenyl-2H-tetrazolium bromide, Sigma M5655). For this purpose, cells were transferred to 96-well plates in an amount of 5000/well. After 24 h of culture in an incubator in F 10-Ham medium with 1% FBS, the tested compounds at various concentrations were added to the wells together with fresh medium. DMSO was added to the medium in a negative control. The MTT test was performed after further culture for 48 h. Then the medium was removed and the formed formazan crystals were dissolved in DMSO. The absorbance was measured at 570 nm in a plate reader and the result was compared to the control (DMSO), which was 100%. The percentage of viability was calculated using the formula: [AT/AC^∗100], where AT is the absorbance of the test sample, AC - absorbance of the control sample. Table 3. Results of inhibiting the activity of monophenolase […] tyrosinase and cytotoxicity testing in B16F10 cells for the described compounds.

S. typhimurium TA1537 = assay: Ames microplate test, TA1537; format: cell-based, Salmonella typhimurium;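 further: reference level is the mean solvent-control yellow wells plus SD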
Experimental: as §1, §2

tyrosinase from mushroom = assay: Inhibition of commercial mushroom tyrosinase (L-DOPA or L-tyrosine substrate); format: biochemical
Experimental: The following substrates were used for the enzymatic reaction: L-tyrosine and L-3,4-dihyroxyphenylalanine (L-DOPA). Both substrates were used in independent experiments. According to the literature, the use of L-DOPA enables the assessment of tyrosinase diphenolase activity, and L-tyrosine - the tyrosinase monophenolase activity. The determinations were performed in 96-well plates, in each well there was placed: 170 µL or 127.5 µL of 50 mM phosphate buffer (pH = 6.8) with tyrosinase (1U/well or 3U/well) and 10 µL of a solution of the tested compound in DMSO (the final concentration in the well was 500 µM, 250 µM or 125 µM). The negative control used 10 µL of pure solvent (DMSO). To initiate the reaction, an appropriate substrate was added: L-tyrosine (62.5 µL of solution in phosphate buffer) or L-DOPA (20 µL of solution in phosphate buffer). After a 25-minute incubation, the absorbance was measured at 475 nm using a microplate reader. The percentage of inhibition of tyrosinase activity was calculated using the formula: [(AC -AT)/AC] × 100, where AC - is the absorbance of the negative control, AT - is the absorbance of the sample containing the tested compound.

[9] = reference [6], read-out: IC50, tyrosinase diphenolase activity
[10] = reference [7], read-out: IC50, tyrosinase inhibition

O=C(O)C=Cc1ccc(O)cc1 [4-Hydroxycinnamic acid]
inhibition of erythema formation [1]: 77% | IC50 (tyrosinase [2]; [9]): 500 µM

CCCCCCCCCCCCOS(=O)(=O)[O-].[Na+] [SDS, sodium lauryl sulfate]
tissue viability ([3]; compared to the negative control (PBS and PEG400)): 23.8% | IL-1α concentration in the culture medium ([3]; positive control): > 250 pg/mL

O=C(O)C=Cc1ccccc1Cl [2-Chlorocinnamic acid]
IC50 (tyrosinase [2]; [10]): 765 µM | mechanism of tyrosinase inhibition (tyrosinase [2]): reversible non-competitive mechanism

O=C(O)C=Cc1ccccc1 [Cinnamic acid]
mechanism of tyrosinase inhibition (tyrosinase [2]): non-competitive inhibitor

O=C(O)C=Cc1ccc(Cl)cc1Cl [2,4-dichlorocinnamic acid]
IC50 (tyrosinase [2]; [10]): 295 µM | mechanism of tyrosinase inhibition (tyrosinase [2]): reversible non-competitive mechanism

COc1ccc(C=CC(=O)O)cc1 [4-methoxycinnamic acid]
IC50 (tyrosinase [2]; [9]): 420 µM

CCOC(=O)[C@H](Cc1ccccc1)NC(=O)C=Cc1ccc(O)c(OC)c1 (stereo in doubt) [N-[3-(4-hydroxy-3-methoxyphenyl)-1-oxo-2-propen-1-yl]-L-phenylalanine ethyl ester]
type of inhibition (tyrosinase [4]): mixed type of inhibition | IC50 (tyrosinase [4]; read-out: IC50, tyrosinase inhibition): 0.185 ± 0.005 µM

CCC(O)CNC(=O)/C=C/c1ccc(Cl)cc1 (centres unmarked) [Compound A-67, (2E)-3-(4-chlorophenyl)-N-(2-hydroxybutyl)prop-2-enamide]
Increase in the number of yellow wells compared to the reference level (S. typhimurium TA98; 0.5 mM, +S9): 0.31 | Increase in the number of yellow wells compared to the reference level (S. typhimurium TA98; 0.5 mM, without S9): 0.27 | Increase in the number of yellow wells compared to the reference level (S. typhimurium TA98; 1.0 mM, +S9): 0.94 | Increase in the number of yellow wells compared to the reference level (S. typhimurium TA98; 1.0 mM, without S9): 1.07 | Increase in the number of yellow wells compared to the reference level (S. typhimurium TA98; 2.0 mM, +S9): 1.04 | Increase in the number of yellow wells compared to the reference level (S. typhimurium TA98; 2.0 mM, without S9): 1.07 | Increase in the number of yellow wells compared to the reference level (S. typhimurium TA1535; 0.5 mM, +S9): 0.27 | Increase in the number of yellow wells compared to the reference level (S. typhimurium TA1535; 0.5 mM, without S9): 0.30 | Increase in the number of yellow wells compared to the reference level (S. typhimurium TA1535; 1.0 mM, +S9): 0.54 | Increase in the number of yellow wells compared to the reference level (S. typhimurium TA1535; 1.0 mM, without S9): 0.45 | Increase in the number of yellow wells compared to the reference level (S. typhimurium TA1535; 2.0 mM, +S9): 0.13 | Increase in the number of yellow wells compared to the reference level (S. typhimurium TA1535; 2.0 mM, without S9): 1.04 | Increase in the number of yellow wells compared to the reference level (E. coli WP2; 0.5 mM, +S9): 0.83 | Increase in the number of yellow wells compared to the reference level (E. coli WP2; 0.5 mM, without S9): 0.50 | Increase in the number of yellow wells compared to the reference level (E. coli WP2; 1.0 mM, +S9): 0.42 | Increase in the number of yellow wells compared to the reference level (E. coli WP2; 1.0 mM, without S9): 1.00 | Increase in the number of yellow wells compared to the reference level (E. coli WP2; 2.0 mM, +S9): 1.42 | Increase in the number of yellow wells compared to the reference level (E. coli WP2; 2.0 mM, without S9): 0.83 | RM0 [5]: 2.46 | Increase in the number of yellow wells compared to the reference level (S. typhimurium TA100; 0.5 mM, +S9): 0.78 | Increase in the number of yellow wells compared to the reference level (S. typhimurium TA100; 0.5 mM, without S9): 1.53 | Increase in the number of yellow wells compared to the reference level (S. typhimurium TA100; 1.0 mM, +S9): 0.64 | Increase in the number of yellow wells compared to the reference level (S. typhimurium TA100; 1.0 mM, without S9): 0.93 | Increase in the number of yellow wells compared to the reference level (S. typhimurium TA100; 2.0 mM, +S9): 0.31 | Increase in the number of yellow wells compared to the reference level (S. typhimurium TA100; 2.0 mM, without S9): 0.80 | % Viability [mean] ([6]; 100 µM): 96.0% | % Viability [mean] ([6]; 150 µM): 90.3% | % Viability [mean] ([6]; 200 µM): 84.0% | DB (dicentric bridges in 1000 binucleate cells) ([7]; 100 µM): 3.3 ± 0.6 | MN (number of micronuclei in 1000 binucleate cells) ([7]; 100 µM): 12.0 ± 5.7 | NB (nuclear buds in 1000 binucleate cells) ([7]; 100 µM): 5.0 ± 2.8 | NDI (nuclear division index) ([7]; 100 µM): 1.58 | DB (dicentric bridges in 1000 binucleate cells) ([7]; 150 µM): 2.3 ± 0.6 | MN (number of micronuclei in 1000 binucleate cells) ([7]; 150 µM): 8.0 ± 2.8 | NB (nuclear buds in 1000 binucleate cells) ([7]; 150 µM): 5.5 ± 2.1 | NDI (nuclear division index) ([7]; 150 µM): 1.62 | DB (dicentric bridges in 1000 binucleate cells) ([7]; 200 µM): 3.0 ± 2.8 | MN (number of micronuclei in 1000 binucleate cells) ([7]; 200 µM): 6.5 ± 2.1 | NB (nuclear buds in 1000 binucleate cells) ([7]; 200 µM): 5.5 ± 0.7 | NDI (nuclear division index) ([7]; 200 µM): 1.62 | Cytotoxicity study in B16F10 cells % viability ([8]; 150 µM): 73.6% | Cytotoxicity study in B16F10 cells % viability ([8]; 200 µM): 87.8% | Cytotoxicity study in B16F10 cells % viability ([8]; 250 µM): 84.4% | Increase in the number of yellow wells compared to the reference level (S. typhimurium TA1537; 0.5 mM, +S9): 1.00 | Increase in the number of yellow wells compared to the reference level (S. typhimurium TA1537; 0.5 mM, without S9): 0.00 | Increase in the number of yellow wells compared to the reference level (S. typhimurium TA1537; 1.0 mM, +S9): 1.33 | Increase in the number of yellow wells compared to the reference level (S. typhimurium TA1537; 1.0 mM, without S9): 0.18 | Increase in the number of yellow wells compared to the reference level (S. typhimurium TA1537; 2.0 mM, +S9): 0.00 | Increase in the number of yellow wells compared to the reference level (S. typhimurium TA1537; 2.0 mM, without S9): 0.82 | Tyrosinase inhibition with L-DOPA [%] (tyrosinase from mushroom; L-DOPA): 60.76±1.99% (500 µM) | IC50 (tyrosinase from mushroom; L-DOPA, read-out: Tyrosinase inhibition with L-DOPA, IC50): 232 µM | Tyrosinase inhibition with L-tyrosine [%] (tyrosinase from mushroom; L-tyrosine): 79.20±1.20% (500 µM) | IC50 (tyrosinase from mushroom; L-tyrosine, read-out: Tyrosinase inhibition with L-tyrosine, IC50): 165 µM

— patent publication EP4324461A1, “(E)-N-CINAMOYLAMINOALKANOLES WITH MELANOGENESIS INHIBITORY ACTIVITY” (UNIWERSYTET JAGIELLONSKI, priority 2022, dated 2024)
